Patent publication US4495179A, “A51568 Antibiotic and process for producing thereof” (Eli Lilly and Company, priority 1983, dated 1985)
In brackets after ≈: the same amount, converted by molar mass.

Experiments:
Type in all cases: cell-based
[1] = system: Staphylococcus epidermidis; assay: Standard agar-dilution assay, aerobic bacteria (Table 9)
Protocol: (§1) The in vitro activity of antibiotic A51568 against a number of aerobic bacteria has been determined using a standard agar-dilution assay. The results, determined by reading the end point after 24 hours, are recorded in Table 9, which follows.

Streptococcus pneumoniae = assay: as above; details: Streptococcus pneumoniae Park I, end point after 24 hours
Protocol: as §1

Streptococcus pyogenes = assay: as above; details: Streptococcus pyogenes C203, end point after 24 hours
Protocol: as §1

Staphylococcus aureus = assay: as above
Protocol: as §1

Escherichia coli = assay: as above
Protocol: as §1

[2] = system: Streptococcus sp. Group D; assay: as above
Protocol: as §1

Haemophilus influenzae = assay: as above
Protocol: as §1

Bacteroides corrodens = assay: Agar-dilution MIC, anaerobic bacteria (Table 10); details: Bacteroides corrodens 1874
Clostridium perfringens = Clostridium perfringens 81; Table 10
Peptococcus prevoti = assay: Agar-dilution MIC, anaerobic bacteria (Table 10); details: Peptococcus prevoti 1281
Eubacterium aerofaciens = assay: Agar-dilution MIC, anaerobic bacteria (Table 10); details: Eubacterium aerofaciens 1235
[3] = system: Bacteroides thetaiotaomicron; assay: Agar-dilution MIC, anaerobic bacteria (Table 10); details: Bacteroides thetaiotaomicron 1438
Clostridium difficile = assay: Agar-dilution MIC, Clostridium difficile strains (Table 11)
From the text: Antibiotic A51568 is also active against a number of strains of Clostridium difficile, as determined by the agar-dilution method.

Bacteroides fragilis = assay: Agar-dilution MIC, anaerobic bacteria (Table 10)
Propionibacterium acnes = assay: Agar-dilution MIC, anaerobic bacteria (Table 10); details: Propionibacterium acnes 79
[4] = system: Peptostreptococcus anaerobius; assay: Agar-dilution MIC, anaerobic bacteria (Table 10); details: Peptostreptococcus anaerobius 1428
[5] = system: Peptostreptococcus intermedius; assay: Agar-dilution MIC, anaerobic bacteria (Table 10); details: Peptostreptococcus intermedius 1264
Bacteroides vulgatis = assay: Agar-dilution MIC, anaerobic bacteria (Table 10); details: Bacteroides vulgatis 1211

`CC(C)C[C@@H](N)C(=O)N[C@@H]1C(=O)N[C@@H](CC(N)=O)C(=O)N[C@H]2C(=O)N[C@H]3C(=O)N[C@H](C(=O)N[C@H](C(=O)O)c4cc(O)cc(O)c4-c4cc3ccc4O)[C@H](O)c3ccc(c(Cl)c3)Oc3cc2cc(c3O[C@@H]2O[C@H](CO)[C@@H](O)[C@H](O)[C@H]2O[C@H]2C[C@](C)(N)C(O)[C@H](C)O2)Oc2ccc(cc2Cl)[C@H]1O` (stereo partly shown) [A51568, demethylvancomycin] showed an MIC ([1]; Staphylococcus epidermidis EPI1, end point after 24 hours) of 2 µg/mL (≈ 1.39 µM), an MIC ([1]; Staphylococcus epidermidis EPI2, end point after 24 hours) of 1 µg/mL (≈ 0.697 µM) and an MIC (Streptococcus pneumoniae) of 0.5 µg/mL (≈ 0.348 µM). The MIC (Streptococcus pyogenes) was 1 µg/mL (≈ 0.697 µM), the MIC (Staphylococcus aureus; Staphylococcus aureus 3055, end point after 24 hours) was 1 µg/mL (≈ 0.697 µM) and the MIC (Staphylococcus aureus; Staphylococcus aureus S13E, end point after 24 hours) was 1 µg/mL (≈ 0.697 µM). For the same compound, the MIC (Staphylococcus aureus; Staphylococcus aureus V41, end point after 24 hours) was 1 µg/mL (≈ 0.697 µM), the MIC (Staphylococcus aureus; Staphylococcus aureus X400, end point after 24 hours) was 2 µg/mL (≈ 1.39 µM) and the MIC (Escherichia coli; Escherichia coli EC14, end point after 24 hours) was > 128 µg/mL. For the same compound, the MIC (Escherichia coli; Escherichia coli N10, end point after 24 hours) was > 128 µg/mL, the MIC (Escherichia coli; Escherichia coli TEM, end point after 24 hours) was 128 µg/mL (≈ 89.2 µM) and the MIC ([2]; Streptococcus sp. Group D 9960, end point after 24 hours) was 4 µg/mL (≈ 2.79 µM). It also gave an MIC ([2]; Streptococcus sp. Group D X66, end point after 24 hours) of 1 µg/mL (≈ 0.697 µM), an MIC (Haemophilus influenzae; Haemophilus influenzae (resistant) R252, end point after 24 hours) of 128 µg/mL (≈ 89.2 µM) and an MIC (Haemophilus influenzae; Haemophilus influenzae (sensitive) Holt, end point after 24 hours) of 64 µg/mL (≈ 44.6 µM). The MIC (Bacteroides corrodens) was 32 µg/mL (≈ 22.3 µM), the MIC (Clostridium perfringens) was 1 µg/mL (≈ 0.697 µM) and the MIC (Peptococcus prevoti) was 32 µg/mL (≈ 22.3 µM). It also gave an MIC (Eubacterium aerofaciens) of 2 µg/mL (≈ 1.39 µM), an MIC [3] of 32 µg/mL (≈ 22.3 µM) and an MIC (Clostridium difficile; Clostridium difficile 78) of 2 µg/mL (≈ 1.39 µM). It also gave an MIC (Clostridium difficile; Clostridium difficile 107B) of 2 µg/mL (≈ 1.39 µM), an MIC (Clostridium difficile; Clostridium difficile 111F) of 2 µg/mL (≈ 1.39 µM) and an MIC (Clostridium difficile; Clostridium difficile 1153) of 2 µg/mL (≈ 1.39 µM). For the same compound, the MIC (Clostridium difficile; Clostridium difficile 2634) was 2 µg/mL (≈ 1.39 µM), the MIC (Clostridium difficile; Clostridium difficile 3424-5B) was 2 µg/mL (≈ 1.39 µM) and the MIC (Clostridium difficile; Clostridium difficile 3816) was 2 µg/mL (≈ 1.39 µM). For the same compound, the MIC (Clostridium difficile; Clostridium difficile 3950D) was 2 µg/mL (≈ 1.39 µM), the MIC (Clostridium difficile; Clostridium difficile 6890) was 2 µg/mL (≈ 1.39 µM) and the MIC (Clostridium difficile; Clostridium difficile 8484) was 2 µg/mL (≈ 1.39 µM). The MIC (Clostridium difficile; Clostridium difficile A-194) was 2 µg/mL (≈ 1.39 µM), the MIC (Clostridium difficile; Clostridium difficile A-195) was 2 µg/mL (≈ 1.39 µM) and the MIC (Clostridium difficile; Clostridium difficile A-196) was 2 µg/mL (≈ 1.39 µM). The MIC (Clostridium difficile; Clostridium difficile A-279) was 2 µg/mL (≈ 1.39 µM), the MIC (Clostridium difficile; Clostridium difficile A-280) was 2 µg/mL (≈ 1.39 µM) and the MIC (Clostridium difficile; Clostridium difficile A-281) was 2 µg/mL (≈ 1.39 µM). It also gave an MIC (Clostridium difficile; Clostridium difficile WAL-2112) of 2 µg/mL (≈ 1.39 µM), an MIC (Clostridium difficile; Clostridium difficile WAL-3657) of 2 µg/mL (≈ 1.39 µM) and an MIC (Clostridium difficile; Clostridium difficile WAL-4268) of 2 µg/mL (≈ 1.39 µM). For the same compound, the MIC (Bacteroides fragilis; Bacteroides fragilis 111) was 32 µg/mL (≈ 22.3 µM), the MIC (Bacteroides fragilis; Bacteroides fragilis 1877) was 32 µg/mL (≈ 22.3 µM) and the MIC (Bacteroides fragilis; Bacteroides fragilis 1936B) was 32 µg/mL (≈ 22.3 µM). The MIC (Propionibacterium acnes) was 1 µg/mL (≈ 0.697 µM), the MIC [4] was 1 µg/mL (≈ 0.697 µM) and the MIC [5] was 1 µg/mL (≈ 0.697 µM). For the same compound, the MIC (Bacteroides vulgatis) was 32 µg/mL (≈ 22.3 µM).
